{"source": "patent US20080241084A1", "about": "“Compositions and methods for inhibiting melanogenesis” (Shaklee Corporation, priority 2007, published 2008)", "key": {"[1]": {"system": "EpiDerm tissue (normal, human-derived epidermal keratinocytes)", "assay": "MTT tissue viability assay on EpiDerm tissue", "assay_type": "cell-based", "conditions": "48 hours of exposure, negative control = 100%", "protocol": "The effect of the tested articles on cell viability was determined with an MTT assay. 10 μL and 25 μL portions of each of GS, SB, A, FS, DG and Mix were applied to separate duplicate samples of EpiDerm tissue (e.g., GS was applied to four tissue samples, with two samples receiving 10 μL and two samples receiving 25 μL of GS). 25 μL of the negative control was applied to each of three separate samples of EpiDerm tissue. EpiDerm tissue is an epidermal equivalent system from the MatTek Corporation of Ashland, Mass., consisting of normal, human-derived epidermal keratinocytes (NHEK) which have been cultured to form a multilayered, highly differentiated model of the human epidermis. After 48 hours of exposure to the test article or negative control each sample was rinsed with phosphate buffered saline (PBS) and the viability of the tissue (referenced to the negative control) was determined using the MTT tissue viability assay.\nThe MTT assay determines cell viability by measuring the amount of 3-(4,5-dimethylthiazol-2-yl)-2,5-diphenyltetrazolium bromide (MTT) dye taken up by the cell cultures. Viable cells take up this dye and convert it to insoluble formazin crystals that resides in the mitochondria of the cells until extracted with alcohol. […] MTT was measured spectrophotometrically and the optical density of each sample was determined. […]"}, "[2]": {"system": "MelanoDerm tissue (MEL-300-B)", "assay": "Macroscopic skin lightening of fixed MelanoDerm tissue", "assay_type": "cell-based, human", "conditions": "fixed tissues", "protocol": "(§1) The effects of the test articles on skin color, melanin production, melanocyte morphology and dendricity and tissue morphology were assessed using MelanoDerm tissue (MEL-300-B). MelanoDerm tissue is another epidermal equivalent system from the MatTek Corporation of Ashland, Mass. This system consists of normal, human-derived epidermal keratinocytes (NHEK) and melanocytes (NHM) which have been cultured to form a multilayered, highly differentiated model of the human epidermis. The NHM within co-cultures undergo spontaneous melanogenesis leading to tissue pigmentation. The MEL-300-B system contains melanocytes derived from a donor.\nOn Day zero of the study, prior to exposure to any test articles, MelanoDerm tissue samples were placed into wells on plates containing maintenance medium that had been pre-warmed to about 37° C. (Long life maintenance medium, EPI-100-LLMM). The Melanoderm tissue samples were then incubated for about an hour in a humidified incubator maintained at a temperature of about 37° C. in an atmosphere of about 5% CO2. Following incubation, the maintenance medium was removed by aspiration. A cell culture stand was then placed in each well on the plate containing a MelanoDerm tissue sample. About 5 mL of fresh maintenance medium pre-warmed to about 37° C. was then added to each well having a MelanoDerm tissue sample. […]"}, "[3]": {"system": "MelanoDerm tissue (MEL-300-B)", "assay": "Melanin assay on MelanoDerm tissue (MEL-300-B)", "assay_type": "cell-based, human", "parameters": "% melanin content relative to the Negative Control / % melanin content relative to the Positive Control: concentration or dose not given beside the values", "conditions": "for Melanin content of the two tested samples for each test article: 25 μL applied Days 0, 1, 3, 6, 8", "protocol": "as §1\nOn Day zero of the study, prior to exposure to any test articles, MelanoDerm tissue samples were placed into wells on plates containing maintenance medium that had been pre-warmed to about 37° C. (Long life maintenance medium, EPI-100-LLMM). The Melanoderm tissue samples were then incubated for about an hour in a humidified incubator maintained at a temperature of about 37° C. in an atmosphere of about 5% CO2. Following incubation, the maintenance medium was removed by aspiration. A cell culture stand was then placed in each well on the plate containing a MelanoDerm tissue sample. About 5 mL of fresh maintenance medium pre-warmed to about 37° C. was then added to each well having a MelanoDerm tissue sample. Then a cell culture insert was placed on top of each cell culture stand. 25 μL portions of each of GS, SB, A, FS, DG, Mix, negative control, and positive control were applied by pipette to six separate MelanoDerm tissue samples for each test article being tested (e.g., GS was applied to six tissue samples in six different wells). 25 μL portions of each of the test articles and controls were also applied to the same MelanoDerm tissue samples on Days, 1, 3, 6, and 8 of the study for each sample remaining (some samples were used for testing). Throughout the study, the maintenance medium was changed every two days to maintain the MelanoDerm tissue samples.\nOn each of Days 3, 7, 10, and 14, one tissue sample for each test article and control was fixed with formalin, photographed to document macroscopic darkening, microscopically observed to examine melanocyte morphology and dendricity, then processed for histology. On Days 10 and 14, two tissue samples for each test article and control were frozen and later assayed for melanin content.\nTo assay the tissues for melanin content, the frozen tissues were thawed and placed in Dulbecco's phosphate buffered saline (D-PBS) to remove excess phenol red from the maintenance medium. The tissues were removed from the D-PBS and each tissue was blotted dry and placed in a separate 1.7 ml microfuge tube. To each microfuge tube 250 μl of a tissue and gel solubilizer was added (Solvable™, 0.5 M—Packard BioScience Co. Catalogue No. 6NE9 100 (NEF910)). Dilutions for creating a standard curve were also prepared containing from 0-250 μg of melanin (Sigma cat. M 8631) in a total of 250 μl Solvable™. The tissues were incubated in their tubes overnight at about 60° C. overnight along with the dilutions. The tissue samples were then vortexed. Then the tissue samples were centrifuged at 13,000 rpm for 5 minutes to pellet. The supernatant from the tissue samples was collected. 250 μl of the supernatant from each tissue sample as well as the dilutions were then added to separate wells of a microwell plate. The plate was read at 490 nm. The optical densities of the dilutions were used to prepare a standard curve against which the optical densities of the tissue sample supernatants could be compared to determine the melanin content of the tissue samples. […]"}}, "note": "Values joined by “and” are separate entries in the source; they are usually repeats but may differ in a detail not shown here. Identical values can stand only once."}
{"compound": "CC1(C)[C@@H](O[C@H]2O[C@H](C(=O)[O-])[C@@H](O)[C@H](O)[C@H]2O[C@@H]2O[C@H](C(=O)[O-])[C@@H](O)[C@H](O)[C@H]2O)CC[C@]2(C)[C@H]3C(=O)C=C4[C@@H]5C[C@@](C)(C(=O)O)CC[C@]5(C)CC[C@@]4(C)[C@]3(C)CC[C@@H]12.[K+].[K+]", "note": "[DG, dipotassium glycyrrhizate]", "values": [{"measurement": "% Viability of tissue sample exposed to test article", "setting": "[1]; 10 mL (so in the source) applied", "result": 94.62, "unit": "%"}, {"measurement": "% Viability of tissue sample exposed to test article", "setting": "[1]; 25 mL (so in the source) applied", "result": 94.46, "unit": "%"}, {"measurement": "macroscopic lightening compared with the negative control", "setting": "[2]; Days 3, 7, 10, and 14", "result": "lightening effect"}, {"measurement": "% melanin content relative to the Negative Control", "setting": "[3]; Day 10", "result": 100.6, "unit": "%"}, {"measurement": "% melanin content relative to the Positive Control", "setting": "[3]; Day 10", "result": 109.5, "unit": "%"}, {"measurement": "Average melanin content", "setting": "[3]; Day 10", "result": 24.8, "unit": "μg/tissue"}, {"measurement": "Melanin content of the two tested samples for each test article", "setting": "[3]; Day 10", "result": "27.3 μg/tissue and 22.3 μg/tissue"}, {"measurement": "% melanin content relative to the Negative Control", "setting": "[3]; Day 14", "result": 85.8, "unit": "%"}, {"measurement": "% melanin content relative to the Positive Control", "setting": "[3]; Day 14", "result": 118.7, "unit": "%"}, {"measurement": "Average melanin content", "setting": "[3]; Day 14", "result": 31.8, "unit": "μg/tissue"}, {"measurement": "Melanin content of the two tested samples for each test article", "setting": "[3]; Day 14", "result": "26.0 μg/tissue and 37.6 μg/tissue"}]}
{"compound": "O=c1cc(CO)occ1O", "note": "[Positive Control, kojic acid]", "values": [{"measurement": "macroscopic lightening compared with the negative control", "setting": "[2]; Days 3, 7, and 10", "result": "lighter than the negative control"}, {"measurement": "% melanin content relative to the Negative Control", "setting": "[3]; Day 10", "result": 91.9, "unit": "%"}, {"measurement": "% melanin content relative to the Positive Control", "setting": "[3]; Day 10", "result": 100.0, "unit": "%"}, {"measurement": "Average melanin content", "setting": "[3]; Day 10", "result": 22.7, "unit": "μg/tissue"}, {"measurement": "Melanin content of the two tested samples for each test article", "setting": "[3]; Day 10", "result": "25.0 μg/tissue and 20.3 μg/tissue"}, {"measurement": "melanin content compared with the negative control (in words)", "setting": "[3]; Day 10 and Day 14", "result": "lower melanin content than the negative control"}, {"measurement": "% melanin content relative to the Negative Control", "setting": "[3]; Day 14", "result": 72.3, "unit": "%"}, {"measurement": "% melanin content relative to the Positive Control", "setting": "[3]; Day 14", "result": 100.0, "unit": "%"}, {"measurement": "Average melanin content", "setting": "[3]; Day 14", "result": 26.8, "unit": "μg/tissue"}, {"measurement": "Melanin content of the two tested samples for each test article", "setting": "[3]; Day 14", "result": "26.6 μg/tissue and 27.0 μg/tissue"}]}
